Test results published in patent US20240228547A1, “POLYPEPTIDE FOR RESISTING NOVEL CORONAVIRUS AND APPLICATION THEREOF” (INSTITUTE OF MICROBIOLOGY, CHINESE ACADEMY OF SCIENCES, priority 2021, published 2024).

What was measured:
[1] = system: SARS-COV-2 original strain and its various variants; format: cell-based
[2] = system: pseudovirus of SARS-CoV-2 variant Delta (B.1.617.2); settings: B.1.617.2 (Delta) pseudovirus; for IC50: read-out: IC50, inhibitory effect on pseudovirus, Hela hACE2 cells
[3] = system: pseudovirus of SARS-CoV-2 variant Beta (B.1.351); settings: B.1.351 (Beta) pseudovirus; for IC50: read-out: IC50, inhibitory effect on pseudovirus, Hela hACE2 cells
[4] = system: pseudovirus of SARS-CoV-2 variant Alpha (B.1.1.7); settings: B.1.1.7 (Alpha) pseudovirus; for IC50: read-out: IC50, inhibitory effect on pseudovirus, Hela hACE2 cells
[5] = system: pseudovirus of SARS-CoV-2 variant D614G; settings: for IC50: pseudovirus of variant D614G
[6] = system: pseudovirus of SARS-CoV-2 variant Kappa (B.1.617.1); settings: for Increase multiple (fold increase in the inhibitory effect compared to the polypeptide P3) / IC50: B.1.617.1 (Kappa) pseudovirus; for IC50: read-out: IC50, inhibitory effect on pseudovirus, Hela hACE2 cells
[7] = system: pseudovirus of SARS-CoV-2 variant Gamma (P.1); settings: P.1 (Gamma) pseudovirus; for IC50: read-out: IC50, inhibitory effect on pseudovirus, Hela hACE2 cells

Row | Structure (SMILES) | inhibitory effect compared with the polypeptide P3 (in words) [1] | Increase multiple (fold increase in the inhibitory effect compared to the polypeptide P3) [2] | IC50 [2] [nM] | Increase multiple (fold increase in the inhibitory effect compared to the polypeptide P3) [3] | IC50 [3] [nM] | Increase multiple (fold increase in the inhibitory effect compared to the polypeptide P3) [4] | IC50 [4] [nM] | Increase multiple (fold increase in the inhibitory effect compared to the polypeptide P3) [5] | IC50 [5] [nM] | Increase multiple (fold increase in the inhibitory effect compared to the polypeptide P3) [6] | IC50 [6] [nM] | Increase multiple (fold increase in the inhibitory effect compared to the polypeptide P3) [7] | IC50 [7] [nM] | inhibitory effect on the Kappa variant strain compared with P3 (in words) ([6]; Kappa variant strain)
1 | CC[C@H](C)[C@H](NC(=O)CNC(=O)[C@H](CO)NC(=O)[C@@H](NC(=O)[C@H](CC(=O)O)NC(=O)CNC(=O)[C@H](Cc1ccccc1)NC(=O)[C@H](CCCCN)NC(=O)[C@@H](N)C(C)C)[C@@H](C)CC)C(=O)N[C@@H](CC(N)=O)C(=O)N[C@@H](C)C(=O)N[C@@H](CO)C(=O)N[C@H](C(=O)N[C@H](C(=O)N[C@@H](CC(N)=O)C(=O)N[C@H](C(=O)N[C@@H](CCCCN)C(=O)N[C@@H](CCC(=O)O)C(=O)N[C@@H](CCC(=O)O)C(=O)N[C@H](C(=O)N[C@@H](CC(=O)O)C(=O)N[C@@H](CCCNC(=N)N)C(=O)N[C@@H](CC(C)C)C(=O)N[C@@H](Cc1ccc(O)cc1)C(=O)N[C@@H](CCC(=O)O)C(=O)N[C@H](C(=O)N[C@H](C(=O)N[C@@H](CCCCN)C(=O)N[C@@H](CC(N)=O)C(=O)N[C@@H](CC(C)C)C(=O)N[C@@H](CC(N)=O)C(=O)N[C@@H](CCC(=O)O)C(=O)N[C@@H](CO)C(=O)N[C@@H](CC(C)C)C(=O)N[C@H](C(=O)N[C@@H](CC(=O)O)C(=O)N[C@@H](CC(C)C)C(=O)N[C@@H](CCC(N)=O)C(=O)N[C@@H](CCC(=O)O)C(=O)N[C@@H](CC(C)C)C(=O)O)[C@@H](C)CC)C(C)C)C(C)C)[C@@H](C)CC)[C@@H](C)CC)C(C)C)C(C)C [Polypeptide P3-3] | most obviously improved | 2.4 | 320 | 7.5 | 100 | 2.1 | 370 | 5.0 | 160 | 1.8 | 430 | 7.2 | 110 | 
2 | CC[C@H](C)[C@H](N)C(=O)N[C@@H](CO)C(=O)NCC(=O)N[C@H](C(=O)N[C@@H](CC(N)=O)C(=O)N[C@@H](C)C(=O)N[C@@H](CO)C(=O)N[C@H](C(=O)N[C@H](C(=O)N[C@@H](CC(N)=O)C(=O)N[C@H](C(=O)N[C@@H](CCC(N)=O)C(=O)N[C@@H](CCCCN)C(=O)N[C@@H](CCC(=O)O)C(=O)N[C@H](C(=O)N[C@@H](CC(=O)O)C(=O)N[C@@H](CCCNC(=N)N)C(=O)N[C@@H](CC(C)C)C(=O)N[C@@H](CC(N)=O)C(=O)N[C@@H](CCC(=O)O)C(=O)N[C@H](C(=O)N[C@@H](C)C(=O)N[C@@H](CCCCN)C(=O)N[C@@H](CCC(=O)O)C(=O)N[C@@H](CC(C)C)C(=O)N[C@@H](CC(N)=O)C(=O)N[C@@H](CCC(=O)O)C(=O)N[C@@H](CO)C(=O)N[C@@H](CC(C)C)C(=O)N[C@H](C(=O)N[C@@H](CC(=O)O)C(=O)N[C@@H](CC(C)C)C(=O)N[C@@H](CCC(N)=O)C(=O)N[C@@H](CCC(=O)O)C(=O)N[C@@H](CC(C)C)C(=O)O)[C@@H](C)CC)C(C)C)[C@@H](C)CC)[C@@H](C)CC)C(C)C)C(C)C)[C@@H](C)CC [Polypeptide P3-5] | decreased slightly | 0.4 | 1820 | 0.6 | 1240 | 0.5 | 1430 | 0.5 | 1470 | 0.7 | 1060 | 1.3 | 630 | slightly higher than that of P3
3 | CC[C@H](C)[C@H](N)C(=O)N[C@@H](CO)C(=O)NCC(=O)N[C@H](C(=O)N[C@@H](CC(N)=O)C(=O)N[C@@H](C)C(=O)N[C@@H](CO)C(=O)N[C@H](C(=O)N[C@H](C(=O)N[C@@H](CC(N)=O)C(=O)N[C@H](C(=O)N[C@@H](CCCCN)C(=O)N[C@@H](CCC(=O)O)C(=O)N[C@@H](CCC(=O)O)C(=O)N[C@H](C(=O)N[C@@H](CC(=O)O)C(=O)N[C@@H](CCCNC(=N)N)C(=O)N[C@@H](CC(C)C)C(=O)N[C@@H](CC(N)=O)C(=O)N[C@@H](CCC(=O)O)C(=O)N[C@H](C(=O)N[C@@H](C)C(=O)N[C@@H](CCCCN)C(=O)N[C@@H](CC(N)=O)C(=O)N[C@@H](CC(C)C)C(=O)N[C@@H](CC(N)=O)C(=O)N[C@@H](CCC(=O)O)C(=O)N[C@@H](CO)C(=O)N[C@@H](CC(C)C)C(=O)N[C@H](C(=O)N[C@@H](CC(=O)O)C(=O)N[C@@H](CC(C)C)C(=O)N[C@@H](CCC(N)=O)C(=O)N[C@@H](CCC(=O)O)C(=O)N[C@@H](CC(C)C)C(=O)O)[C@@H](C)CC)C(C)C)[C@@H](C)CC)[C@@H](C)CC)C(C)C)C(C)C)[C@@H](C)CC [Polypeptide P3-4] | improved to varying degrees | 1.4 | 550 | 4.0 | 200 | 1.3 | 590 | 2.6 | 300 | 1.6 | 480 | 3.6 | 220 | 
